Assay results: patent publication US20070129334A1, “Orally Active Purine-Based Inhibitors of Heat Shock Protein 90” (CONFORMA THERAPEUTICS CORPORATION, priority 2001, published 2007)
Like-named read-outs stand apart in the source and are kept apart here. One block for each compound: values may come before it.

Key:
[1] = tested on: HER-2 receptor (Hsp90 client) in MCF-7 cells; assay: HER-2 degradation assay (MCF-7 cells, 16 h, phycoerythrin-labeled antibody and flow cytometry); assay type: cell-based, human
Her-2 in MCF-7 cells = assay: HER2 inhibition assay (Her-2 degradation, MCF-7 cells, 24 incubation, flow cytometry); assay type: cell-based; details: Homo sapiens, MCF7, concentration necessary to degrade 50% of Her 2 expression
Description: MCF-7 cells are seeded in 24 well plates at a density of approximately 30,000 cells/well and allowed to grow for 16 hours in DMEM supplemented with 10% FBS. Drug is then added at a concentration range of 100 uM to 0.01 uM. Cells are incubated for an additional […]. Drug treated cells and untreated control cells are trypsinized, and incubated at room temperature for 15 minutes with anti Her-2 neu Ab conjugated with phycoerythrin (Becton Dickinson, San Jose Calif.; Cat no. 340552) at a concentration of 0.25 ug/ml, or non-specific control IgG1 conjugated with phycoerythrin (Becton Dickinson, San Jose Calif.; Cat no. 340761). Samples were analyzed using a FACS Calibur flow cytometer (Becton Dickinson) equipped with Argon-ion laser that which emits 15 mW of 488 nm light for excitation of the phycoerythrin fluorochrome. 10,000 events were collected per sample. A fluorescence histogram was generated and the mean fluorescence intensity (mfi) of each sample was determined using Cellquest software. The background was defined as the mfi generated from cells incubated with control IgG, and was subtracted from each sample stained with the HER-2/neu Ab Percent degradation of Her-2 was calculated as follows: % Her-2 degradation=(mfi HER-2 sample)/(mfi HER-2 untreated cells)×100
The compounds in the table below were prepared as described above and evaluated for Her-2 degradation ability based on the above assay (example 314).

[2] = tested on: Purified native Hsp90 protein (mixture of alpha and beta) from HeLa cells; assay: Fluorescence-based competitive binding assay for biotinylated-geldanamycin to purified Hsp90; design: species or system human; details: HSP90 binding ability; competition with biotin-GM
[3] = tested on: MCF-7 breast cancer cells; assay: MTS cell growth inhibition assay; assay type: cell-based, human; details: MCF-7 cells
in vivo = details: Balb/C, mouse, plasma
[4] = Pharmacokinetics in Balb/C mice (IV 10 mg/kg, PO 100 mg/kg); details: for IV Parameters T1/2 / IV Parameters VSS / IV Parameters Cl: IV 10 mg/kg; for IV Parameters T1/2 / IV Parameters VSS / PO Parameters T1/2 / PO Parameters Tmax / PO Parameters Cmax / PO Parameters AUC: H3PO4 salts; for IV Parameters Cl: H3PO4 salts in phosphatidylcholine/water dispersion; for PO Parameters T1/2 / PO Parameters Tmax / PO Parameters Cmax / PO Parameters AUC: PO 100 mg/kg; for PO Parameters Cmax: plasma; for PO Parameters AUC: over 4 h; for PO Parameters % F: oral bioavailability, PO 100 mg/kg vs IV 10 mg/kg
[5] = Mouse pharmacokinetics after oral administration at 100 mg/kg
[6] = Solubility in simulated gastric fluid, simulated intestinal fluid and serum; assay type: physicochemical; details: for Serum (PH 7.4): solubility in serum; for Gastric (PH 2.0): solubility in simulated gastric fluid; for Intestinal (PH 6.5): solubility in simulated intestinal fluid
[7] = tested on: N87 xenograft model of human stomach cancer; details: oral 2×100 mg/kg/day, 5 days/week
[8] = Homo sapiens, MCF7, MCF-7 cells, 16 h, average of at least three observations, read-out: HER-2 IC50
[9] = Homo sapiens, MCF7, MCF-7 cells, 16 h, SEM 6-11% of the mean, read-out: HER-2 IC50
[10] = Homo sapiens, MCF7, 120 h, 5 days, SEM 9-21% of the mean

SMILES: COc1ccc(OC)c(Cc2nc3c(N)nc(F)nc3n2CCC=C(C)C)c1 [Compound 3, 8-(2,5-Dimethoxy-benzyl)-2-fluoro-9-(4-methyl-pent-3-enyl)-9H-purin-6-ylamine]
IC50 (Her-2 in MCF-7 cells): 500 nM
IC50 [2]: 1100 nM

SMILES: C#CCCCn1c(Cc2cc(OC)ccc2I)nc2c(N)nc(F)nc21 [Compound 29, 2-Fluoro-8-(2-iodo-5-methoxy-benzyl)-9-pent-4-ynyl-9H-purin-6-ylamine]
IC50 (Her-2 in MCF-7 cells): 800 nM
IC50 [2]: 900 nM

SMILES: COc1ccc(OC)c(Cc2nc3c(N)nc(F)nc3n2CCCCCBr)c1 [Compound 5, 8-(2,5-Dimethoxy-benzyl)-2-fluoro-9-(5-bromo-pentyl)-9H-purin-6-ylamine]
IC50 (Her-2 in MCF-7 cells): 1000 nM
IC50 [2]: 2000 nM

SMILES: C=CCNC1=C2C[C@@H](C)C[C@H](OC)[C@H](O)[C@@H](C)/C=C(\C)[C@H](OC(N)=O)[C@@H](OC)/C=C\C=C(/C)C(=O)NC(=CC1=O)C2=O [Compound 17-AAG, 17-allylamino,17-desmethoxy-geldanamycin, reference compound]
IC50 ([1]; read-out: HER-2 IC50): 12.9 ± 0.3 nM
IC50 ([3]; 5 days): 32 ± 4 nM

SMILES: CCOP(=O)(CCn1c(Sc2nc3cncc(Cl)c3s2)nc2c(N)ncnc21)OCC [Compound 206, {2-[6-Amino-8-(7-chloro-thiazolo[4,5-c]pyridinl-2-ylsulfanyl)-purin-9-yl]-ethyl}-phosphonic acid diethyl ester]
plasma concentrations (in words) ([5]; PO 100 mg/kg): below the level of detection
Cmax ([5]; in vivo, po, 100 mg/kg): < 500 ng/mL
solubility compared with benzothioazol analog 204 ([6]; simulated gastric fluid, simulated intestinal fluid, serum): significantly more soluble in all three solutions
Serum (PH 7.4) [6]: 14 µg/mL
Gastric (PH 2.0) [6]: 124 µg/mL
Intestinal (PH 6.5) [6]: 38.3 µg/mL

SMILES: COc1ccc(I)c(Cc2nc3c(N)nc(F)nc3n2CCC=C(C)C)c1 [Compound 28, 2-Fluoro-8-(2-iodo-5-methoxy-benzyl)-9-(4-methyl-pent-3-enyl)-9H-purin-6-ylamine]
IC50 (Her-2 in MCF-7 cells): 1000 nM
IC50 [2]: 2300 nM

SMILES: C#CCCCn1c(Sc2cc(OC)ccc2I)nc2c(N)ncnc21 [Compound 309, 8-(2-iodo-5-methoxy-phenylsulfanyl)-9-pent-4-ynyl-9H-purin-6-ylamine]
IC50 [3, 10]: 700 nM

SMILES: N#CCCCCn1c(Sc2nc3cccc(Cl)c3s2)nc2c(N)ncnc21 [Compound 284, 5-[6-Amino-8-(7-chloro-benzothiazol-2-ylsulfanyl)-purin-9-yl]-pentanenitrile]
IC50 ([1]; Homo sapiens, MCF7, read-out: HER-2): 110 nM
Serum (PH 7.4) [6]: 31.3 µg/mL
Gastric (PH 2.0) [6]: 58.7 µg/mL
Intestinal (PH 6.5) [6]: 4.4 µg/mL

SMILES: C#CCCCn1c(Sc2cc(OC)ccc2I)nc2c(N)ncnc21 [Compound 47, 8-(2-Iodo-5-methoxy-phenylsulfanyl)-9-pent-4-ynyl-9H-purin-6-ylamine]
IC50 (Her-2 in MCF-7 cells): 300 nM
IC50 [2]: 800 nM

SMILES: C#CCCCn1c(Sc2cc(OC)ccc2OC)nc2c(N)ncnc21 [Compound 57, 8-(2,5-dimethoxy-phenylsulfanyl)-9-pent-4-ynyl-9H-purin-6-ylamine]
IC50 (Her-2 in MCF-7 cells): 1400 nM
IC50 [2]: 4000 nM

SMILES: C#CCCCn1c(Cc2cc(OC)ccc2OC)nc2c(N)nc(F)nc21 [Compound 2, 8-(2,5-dimethoxybenzyl)-N9-pentynyl-2-fluoro adenine]
IC50 (Her-2 in MCF-7 cells): 600 nM

SMILES: COc1ccc(I)c(Sc2nc3c(N)ncnc3n2CCNCC(C)(C)C)c1.O=P(O)(O)O [Compound 132.H3PO4, 9-[2-(2,2-Dimethyl-propylamino)-ethyl]-8-(2-iodo-5-methoxy-phenylsulfanyl)-9H-purin-6-ylamine, H3PO4 salt]
tumor growth inhibition ([7]; N87): statistically significant (p=0.02) tumor growth inhibition
toxicity ([7]; mice): no overt toxicity

Other lines, results leading:

IC50 [1, 8]: 370 nM
IC50 (Her-2 in MCF-7 cells): 300 nM
IC50 [2]: 900 nM
SMILES: COc1ccc(I)c(Sc2nc3c(N)ncnc3n2CCC=C(C)C)c1 [Compound 46, 8-(2-Iodo-5-methoxy-phenylsulfanyl)-9-(4-methyl-pent-3-enyl)-9H-purin-6-ylamine]

IC50 (Her-2 in MCF-7 cells): 1500 nM
IC50 [2]: 1100 nM
SMILES: C#CCCCn1c(Cc2cc(OC)ccc2I)nc2c(N)ncnc21 [Compound 26, 8-(2-Iodo-5-methoxy-benzyl)-9-pent-4-ynyl-9H-purin-6-ylamine]

IC50 [1, 9]: 210 nM
IC50 ([1]; Homo sapiens, MCF7, MCF-7 cells, read-out: HER-2 IC50): 210 nM
IC50 [3, 10]: 200 nM
IC50 ([3]; Homo sapiens, MCF7): 200 nM
Cmax (in vivo; po, 100 mg/kg): 12 µM
IV Parameters T1/2 [4]: 30 min
IV Parameters VSS [4]: 2.4 L/kg
IV Parameters Cl [4]: 69 mL/min/kg
PO Parameters T1/2 [4]: 36 min
PO Parameters Tmax [4]: 30 min
PO Parameters Cmax [4]: 5800 ng/mL
PO Parameters AUC [4]: 590 µg·min/mL
PO Parameters % F [4]: 42%
SMILES: CCC(CC)NCCCn1c(Sc2cc(OC)ccc2I)nc2c(N)ncnc21 [Compound 108, 9-[3-(1-Ethyl-propylamino)-propyl]-8-(2-iodo-5-methoxy-phenylsulfanyl)-9H-purin-6-ylamine]

IC50 (Her-2 in MCF-7 cells): 1500 nM
IC50 [2]: 1500 nM
SMILES: CCCCn1c(Sc2cc(OC)ccc2I)nc2c(N)ncnc21 [Compound 44, 9-Butyl-8-(2-iodo-5-methoxy-phenylsulfanyl)-9H-purin-6-ylamine]

IC50 (Her-2 in MCF-7 cells): 1500 nM
IC50 [2]: 6000 nM
SMILES: C#CCCCn1c(Cc2cc(OC)ccc2OC)nc2c(N)ncnc21 [Compound 8, 8-(2,5-Dimethoxy-benzyl)-9-pent-4-ynyl-9H-purin-6-ylamine]

IC50 (Her-2 in MCF-7 cells): 1500 nM
IC50 [2]: 2800 nM
SMILES: COc1ccc(OC)c(Cc2nc3c(N)ncnc3n2CCC=C(C)C)c1 [Compound 10, 8-(2,5-Dimethoxy-benzyl)-9-(4-methyl-pent-3-enyl)-9H-purin-6-ylamine]

IC50 (Her-2 in MCF-7 cells): 2000 nM
IC50 [2]: 1800 nM
SMILES: CCCCn1c(Sc2ccc(I)c(OC)c2)nc2c(N)ncnc21 [Compound 45, 9-Butyl-8-(4-iodo-3-methoxy-phenylsulfanyl)-9H-purin-6-ylamine]

IC50 (Her-2 in MCF-7 cells): 700 nM
IC50 [2]: 1300 nM
SMILES: COc1ccc(OC)c(Sc2nc3c(N)ncnc3n2CCC=C(C)C)c1 [Compound 63, 8-(2,5-dimethoxy-phenylsulfanyl)-9-(4-methyl-pent-3-enyl)-9H-purin-6-ylamine]

IC50 [1, 9]: 140 nM
IC50 [3, 10]: 200 nM
bioavailability (in vivo; oral, 100 mg/kg): ≥ 50%
IV Parameters T1/2 [4]: 96 min
IV Parameters VSS [4]: 24 L/kg
IV Parameters Cl [4]: 131 mL/min/kg
PO Parameters T1/2 [4]: 54 min
PO Parameters Tmax [4]: 30 min
PO Parameters Cmax [4]: 6700 ng/mL
PO Parameters AUC [4]: 680 µg·min/mL
PO Parameters % F [4]: 97%
SMILES: COc1ccc(I)c(Sc2nc3c(N)ncnc3n2CCCNC(C)(C)C)c1 [Compound 95, 9-(3-tert-Butylamino-propyl)-8-(2-iodo-5-methoxy-phenylsulfanyl)-9H-purin-6-ylamine]

IC50 [1, 8]: 12000 nM
IC50 (Her-2 in MCF-7 cells): 6000 nM
IC50 [2]: 10000 nM
SMILES: CCCCn1c(Cc2cc(OC)ccc2OC)nc2c(N)ncnc21 [Compound 1, 8-(2,5-dimethoxybenzyl)-N-9-butyladenine]

IC50 [1, 9]: 210 nM
IC50 [3, 10]: 200 nM
clearance (in vivo; iv, 10 mg/kg): 33 mL/min/kg
AUC (in vivo; po, 100 mg/kg): 6330 ng·h/mL
Tmax (in vivo; po, 100 mg/kg): 30 min
bioavailability (in vivo; po, 100 mg/kg): 28%
IV Parameters T1/2 [4]: 78 min
IV Parameters VSS [4]: 3.4 L/kg
PO Parameters T1/2 [4]: 42 min
PO Parameters Cmax [4]: 4800 ng/mL
SMILES: CCC(C)NCCCn1c(Sc2cc(OC)ccc2I)nc2c(N)ncnc21 (racemic) [Compound 109, 9-(3-sec-Butylamino-propyl)-8-(2-iodo-5-methoxy-phenylsulfanyl)-9H-purin-6-ylamine (racemate)]

IC50 (Her-2 in MCF-7 cells): 800 nM
IC50 [2]: 900 nM
SMILES: COc1ccc(I)c(Cc2nc3c(N)ncnc3n2CCC=C(C)C)c1 [Compound 27, 8-(2-Iodo-5-methoxy-benzyl)-9-(4-methyl-pent-3-enyl)-9H-purin-6-yl amine]
